Measured values from patent US4013449A, “Method of controlling weed growth in a paddy field” (priority 1974, dated 1977).
“Also recorded” adds a separate entry of the source.

Assays:
barnyard grass [1] = test: Example 1: usual transplanting culture, paddy field, poured into flooded water, herbicidal effect on barnyard grass; assay type: in vivo, Echinochloa crusgalli; conditions: for Herbicidal effect, barnyard grass: 3 weeks; for herbicidal effect to barnyard grass and broadleaf weeds: poured into flooded water; as to Herbicidal effect, barnyard grass: key: 5: complete control; 4: excellent effect; 3: large effect; 2: fair effect; 1: small effect; 0: no effect
Description: (§1) DCPA and β-NAC were separately crushed into fine powders by a jetmizer. The crushed DCPA and β-NAC were mixed in ratios of 80 : 1; 40 : 1; 20 : 1 and 10 : 1 together with a dispersing agent (Sorpol 5039 manufactured by Toho Chemical Co. and Rapizol BB-74 manufactured by Nippon Fat & Oil Co.) to form a wettable powder. The compositions were applied under the following conditions in a paddy field of Ishigakijima, Okinawa-Ken, Japan.
(§2) 1. Plot size: Two replications, each 1 m^2 per division
(§3) 2. Culturing method: Usual transplanting
(§4) 3. Rice variety: Taichu 65
(§5) 5 - 6 leaf stage of rice plants at the transplanting;
(§6) a. Treating time Mar. 16, 1974 (17 days after transplanting)
(§7) 2 - 2.5 leaf stage of barnyard grass
(§8) Each composition was diluted with 50 cc of water and the solution was poured in the rows by using a watering pot
(§9) Barnyard grass (Echinochloa crusgalli);
(§10) After 3 weeks from the treatment, the herbicidal effect and the phytotoxicity were observed.

[2] = Experiment 3: decomposition of DCPA in soil; assay type: physicochemical; conditions: Alluvium loam soil, DCPA 100 g/are; for inhibition of the decomposition of DCPA in soil: NAC 3.3 g/are
Description: The method of this invention is treatment in flooded water. Accordingly, transfer of the active ingredients into the soil of the paddy field is unavoidable. The decompositions of the active ingredients in the paddy soil were measured.
Soil: Alluvium loam soil
The active ingredients were uniformly mixed in a 5 mm
Analysis: The concentrations of DCPA were
measured by gas chromatography in […]

broadleaf weeds [3] = test: Example 2: mechanical transplanting using young seedlings, poured into flooded water, herbicidal effect on broadleaf weeds; assay type: in vivo; conditions: 20 days; also: key: 5: complete control; 4: excellent effect; 3: large effect; 2: fair effect; 1: small effect; 0: no effect
Description: (§11) The tests were conducted by using the compositions of Example 1 in the paddy field of Ishigakijima, Okinawa-Ken, Japan.
(§12) 1. Plot size: Two replications each 1 m^2 per division.
(§13) 2. Culturing method: Mechanical transplanting using young seedlings
(§14) 3. Rice variety: Nihonbare
(§15) 4. Transplanting: Apr. 8, 1974
(§16) 2.3 - 3 leaf stage of rice at the transplanting;
(§17) 5. Depth of water: 3 - 5 cm
(§18) A. first treatment: Apr. 19, 1974
(§19) (16 days after transplanting)
as §7
(§20) B. second treatment: Apr. 23, 1974
(§21) (20 days after transplanting)
(§22) 3 - 3.5 leaf stage of barnyard grass.
(§23) Each composition was diluted with 50 cc of water and the solution was poured in the rows by using a watering pot.
Monochoria vaginalis (Burm fil) Presel;
Rotala indica (Willd) Koehne;
Scirpus juncoides Roxb; and
(§24) After 20 days from the treatment (the first treatment and the second treatment), the herbicidal effects and the condition of the rice were observed.

barnyard grass [4] = test: Example 2: mechanical transplanting using young seedlings, poured into flooded water, herbicidal effect on barnyard grass; assay type: in vivo, Echinochloa crusgalli; conditions: for Herbicidal Effect, BG: 20 days; as to Herbicidal Effect, BG: key: 5: complete control; 4: excellent effect; 3: large effect; 2: fair effect; 1: small effect; 0: no effect
Description: as §11, §12, §13, §14, §15, §16, §17, §18, §19, §7, §20, §21, §22, §23, §9, §24

rice plant [5] = test: Reference Experiment 2: foliage treatment, phytotoxicity of rice plant; assay type: in vivo; conditions: DCPA 1000 ppm alone
Description: In unglazed pots having diameters of 9 cm, diluvium clay loam was filled and rice seeds and barnyard grass seeds were sowed and grown. […] The phytotoxicity of rice and herbicidal effect on barnyard grass were observed 20 days from the treatment.

rice plant [6] = test: Example 1: usual transplanting culture, paddy field, phytotoxicity to rice plant; assay type: in vivo, Taichu 65; set-up: key: X: killed; ++++: serious damage; +++: high damage; ++: middle damage; +: low damage; ±: quite low damage; -: no damage; conditions: 3 weeks
Description: as §1, §2, §3, §4, §5, §6, §7, §8, §10

broadleaf weeds [7] = test: Example 1: usual transplanting culture, paddy field, poured into flooded water, herbicidal effect on broadleaf weeds; assay type: in vivo; conditions: 3 weeks; also: key: 5: complete control; 4: excellent effect; 3: large effect; 2: fair effect; 1: small effect; 0: no effect
Description: as §1, §2, §3, §4, §5, §6, §7, §8
Monochoria vaginalis (Burm fil) Presl;
Dopatrium junceum (Roxb) Hamilt;
Rotala indica (Willd) koehne;
Eleocharis acicularis Roem et Schult;
as §10

larva of mosquito = test: LD50 to larva of mosquito (Table 1); conditions: read-out: LD50 to larva of mosquito
house fly = test: LD50 to house fly (Table 1); conditions: addition of piperinyl butoxide
Insecticidal effect = conditions: in vivo
[8] = A: 2 - 2.5 leaf stage, DCPA 60 g/are, β-NAC none
[9] = B: 3 - 3.5 leaf stage, DCPA 60 g/are, β-NAC none
[10] = A: 2 - 2.5 leaf stage, DCPA none, β-NAC 4.0 g/are
[11] = B: 3 - 3.5 leaf stage, DCPA none, β-NAC 4.0 g/are

## CCC(=O)Nc1ccc(Cl)c(Cl)c1 [DCPA, 3,4-dichloropropionanilide, reference compound]
Barnyard grass [1]; DCPA 60 g/are, β-NAC none
  Herbicidal effect, barnyard grass: 0
Barnyard grass [1]; DCPA 60 g/are
  herbicidal effect to barnyard grass and broadleaf weeds: no herbicidal effect
[2]; α-NAC or β-NAC 3.3 g/are where combined, gas chromatography
  minimum residues of DCPA in soil: 4 days
Broadleaf weeds [3]; [8]
  Herbicidal Effect, BLW: 0
Broadleaf weeds [3]; [9]
  Herbicidal Effect, BLW: 0
Barnyard grass [4]; [8]
  Herbicidal Effect, BG: 0
Barnyard grass [4]; [9]
  Herbicidal Effect, BG: 0
Barnyard grass [4]; DCPA 60 g/are, 2 - 2.5 and 3 - 3.5 leaf stage of barnyard grass
  herbicidal effect: no herbicidal effect was found
Rice plant [5]
  Phytotoxicity to rice plants: not found
Rice plant [6]; DCPA 60 g/are, β-NAC none
  Phytotoxicity to rice plant: -
Broadleaf weeds [7]; DCPA 60 g/are, β-NAC none
  Herbicidal effect, broadleaf weeds: 0

## CNC(=O)Oc1cccc2ccccc12 [α-NAC, α-naphthyl-N-methyl carbamate]
[2]
  inhibition of the decomposition of DCPA in soil: inhibit the decomposition of DCPA

## CNC(=O)Oc1ccc2ccccc2c1 [β-NAC, β-naphthyl-N-methyl carbamate]
Barnyard grass [1]; DCPA none, β-NAC 4.0 g/are
  Herbicidal effect, barnyard grass: 0
Barnyard grass [1]; β-NAC 4 g/are
  herbicidal effect to barnyard grass and broadleaf weeds: no herbicidal effect
Larva of mosquito
  LC50: > 10 µg/mL
[2]
  inhibition of the decomposition of DCPA in soil: higher effect for inhibiting the decomposition of DCPA
House fly
  LD50 to house fly: 12.5 µg/g
Broadleaf weeds [3]; [10]
  Herbicidal Effect, BLW: 0
Broadleaf weeds [3]; [11]
  Herbicidal Effect, BLW: 0
Barnyard grass [4]; [10]
  Herbicidal Effect, BG: 0
Barnyard grass [4]; [11]
  Herbicidal Effect, BG: 0
Rice plant [6]; DCPA none, β-NAC 4.0 g/are
  Phytotoxicity to rice plant: -
Insecticidal effect
  insecticidal effect: low insecticidal effect; also recorded: no insecticidal effect
Broadleaf weeds [7]; DCPA none, β-NAC 4.0 g/are
  Herbicidal effect, broadleaf weeds: 0
